ChEMBL document CHEMBL1151646, “Methyl -Orcinolcarboxylate and Depsides from Parmelia furfuracea” (1985)
Structures can show the parent of a compound that is named as a salt.

How the values were obtained:
Type in all cases: functional
Conditions in all cases: read-out: IZ
[1] = test system: Penicillium digitatum; experiment: Antimicrobial activity against Penicillium digitatum at 24 ug
[2] = test system: Saccharomyces cerevisiae; experiment: Antimicrobial activity against Saccharomyces cerevisiae at 24 ug
[3] = test system: Bacillus subtilis; experiment: Antimicrobial activity against Bacillus subtilis ATCC 6633 at 400 ug
[4] = test system: Saccharomyces cerevisiae; experiment: Antimicrobial activity against Saccharomyces cerevisiae at 400 ug
[5] = test system: Penicillium digitatum; experiment: Antimicrobial activity against Penicillium digitatum at 40 ug
[6] = test system: Escherichia coli; experiment: Antimicrobial activity against Escherichia coli B ATCC 11303 at 400 ug
[7] = test system: Bacillus subtilis; experiment: Antimicrobial activity against Bacillus subtilis ATCC 6633 at 0.6 ug
[8] = test system: Escherichia coli; experiment: Antimicrobial activity against Escherichia coli B ATCC 11303 at 6 ug

Q: What does the source list for `CCCCC[C@@H](O)[C@H]1C(=O)O[C@H](C)[C@@H](O)/C=C/C=C/C=C/C=C/C=C(\C)[C@@H](O)C[C@H](O)C[C@H](O)C[C@H](O)C[C@H](O)C[C@H](O)C[C@@H]1O` [FILIPIN]?
A: zone of inhibition at 24 µg/disc [1]: 29 mm; zone of inhibition at 24 µg/disc [2]: 21 mm

Q: `COC(=O)c1c(C)cc(O)c(C)c1O` [ATRARIC ACID] was tested. Which zone of inhibition at 400 µg/disc [3] did it give?
A: 17 mm

Q: And the zone of inhibition at 400 µg/disc [4]?
A: 18 mm

Q: What about the zone of inhibition at 40 µg/disc [5] of the same molecule?
A: 29 mm

Q: What about the zone of inhibition at 400 µg/disc [6] of the same molecule?
A: 15 mm

Q: Which results are given for `CN[C@@H]1[C@H](O[C@H]2[C@H](O[C@H]3[C@H](O)[C@@H](O)[C@H](N=C(N)N)[C@@H](O)[C@@H]3N=C(N)N)O[C@@H](C)[C@]2(O)C=O)O[C@@H](CO)[C@H](O)[C@H]1O` [STREPTOMYCIN SULFATE]?
A: zone of inhibition at 0.6 µg/disc [7]: 16 mm; zone of inhibition at 6 µg/disc [8]: 17 mm
